Patent publication US7977322B2 (Vertex Pharmaceuticals Incorporated, priority 2004, dated 2011)

Target: T1, ΔF508-CFTR (Homo sapiens, UniProt P13569, DEL508-508)
T1 construct: expressed in transfected cells
Assay: Membrane potential optical (FRET/VIPR) assay, identification of correction compounds
Format: cell-based
Conditions: Table 3, assay not given; for Emax: read-out: % Activity / % Efficacy (relative efficacy)
Summary of the method: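 NIH3T3 mouse fibroblasts stably expressing ΔF508-CFTR were exposed to compound for 16 h at 37° C in serum-free medium, then loaded with DiSBAC2(3)/CC2-DMPE. After addition of 10 μM forskolin plus 20 μM genistein in Cl⁻-free gluconate bath (pH 7.4), depolarization from Cl⁻ efflux was read by FRET (VIPR II).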

T1 sequence (P13569 with tags, fused parts or gaps DEL508-508): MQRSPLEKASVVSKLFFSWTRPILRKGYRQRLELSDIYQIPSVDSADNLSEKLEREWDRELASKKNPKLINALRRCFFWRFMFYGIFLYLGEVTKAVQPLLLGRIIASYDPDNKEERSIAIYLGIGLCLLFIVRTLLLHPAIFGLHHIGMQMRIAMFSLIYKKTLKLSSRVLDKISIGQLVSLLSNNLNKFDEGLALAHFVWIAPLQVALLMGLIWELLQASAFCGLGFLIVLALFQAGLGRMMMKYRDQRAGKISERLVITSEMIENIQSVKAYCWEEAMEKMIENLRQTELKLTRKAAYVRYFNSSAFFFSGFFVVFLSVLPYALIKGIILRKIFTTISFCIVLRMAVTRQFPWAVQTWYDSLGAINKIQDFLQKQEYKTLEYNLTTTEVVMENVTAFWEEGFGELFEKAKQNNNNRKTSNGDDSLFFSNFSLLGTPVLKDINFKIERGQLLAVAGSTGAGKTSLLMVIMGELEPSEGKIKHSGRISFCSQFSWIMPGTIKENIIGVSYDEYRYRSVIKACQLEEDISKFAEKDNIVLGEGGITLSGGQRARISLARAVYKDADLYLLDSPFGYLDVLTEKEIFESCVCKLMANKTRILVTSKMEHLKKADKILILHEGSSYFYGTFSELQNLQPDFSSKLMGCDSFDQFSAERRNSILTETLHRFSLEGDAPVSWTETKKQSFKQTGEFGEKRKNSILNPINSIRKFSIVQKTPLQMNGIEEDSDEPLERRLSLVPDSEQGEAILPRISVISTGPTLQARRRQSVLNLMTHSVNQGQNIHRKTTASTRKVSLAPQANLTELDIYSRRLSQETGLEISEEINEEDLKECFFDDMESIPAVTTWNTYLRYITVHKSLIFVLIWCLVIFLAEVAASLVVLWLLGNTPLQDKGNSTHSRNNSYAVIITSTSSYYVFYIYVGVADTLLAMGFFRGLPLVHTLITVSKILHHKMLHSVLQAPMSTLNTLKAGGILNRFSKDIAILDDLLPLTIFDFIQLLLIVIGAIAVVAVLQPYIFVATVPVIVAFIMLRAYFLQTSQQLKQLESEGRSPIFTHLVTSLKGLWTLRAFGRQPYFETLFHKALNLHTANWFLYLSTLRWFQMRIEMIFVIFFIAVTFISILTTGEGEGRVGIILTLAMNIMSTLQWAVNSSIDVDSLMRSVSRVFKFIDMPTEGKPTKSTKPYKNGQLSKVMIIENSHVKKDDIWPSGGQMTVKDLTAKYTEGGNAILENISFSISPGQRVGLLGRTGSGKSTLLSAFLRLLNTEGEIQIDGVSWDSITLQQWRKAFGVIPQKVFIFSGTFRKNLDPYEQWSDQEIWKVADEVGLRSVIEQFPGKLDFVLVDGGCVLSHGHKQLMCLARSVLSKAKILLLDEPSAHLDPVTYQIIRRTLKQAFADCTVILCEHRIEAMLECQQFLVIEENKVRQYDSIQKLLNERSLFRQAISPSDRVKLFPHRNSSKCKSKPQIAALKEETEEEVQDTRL

Row | SMILES | EC50 | Emax | % Activity / % Efficacy (relative efficacy)
1 | Cc1ccccc1Cc1cnc(NC(=O)C2(c3ccc4c(c3)OCO4)CC2)s1 [Example 281] | < 10 µM |  | +++ (“+++” means>100%)
2 | CCN(CC)CCn1cc(Cc2ccccc2Cl)s/c1=N/C(=O)C1(c2ccc(OC)cc2)CC1 [Example 73] | 25 to 60 µM | < 25% | 
3 | O=C(Nc1nnc(-c2ccccc2)s1)C1(c2ccc3c(c2)OCO3)CC1 [Example 293] | 10 to 25 µM | 25 to 100% | 
4 | Cc1ccc(-c2csc(NC(=O)C3(c4ccc5c(c4)OCO5)CC3)n2)c(C)c1 [Example 127] | < 10 µM |  | +++ (“+++” means>100%)
5 | CCN(CC)CCN(C(=O)C1(c2ccc(OC)cc2)CC1)c1ncc(Cc2ccccc2Cl)s1 [Example 75] | 25 to 60 µM |  | ++ (“++” means between 25% to 100%)
6 | COc1ccc(C2(C(=O)Nc3ncc(Sc4cccc(Cl)c4)s3)CC2)cc1 [Example 37] | < 10 µM | > 100% | 
7 | COc1ccc(C2(C(=O)Nc3ncc(Cc4ccc(Cl)cc4)s3)CC2)cc1 [Example 13] | < 10 µM | > 100% | 
8 | CN1CCN(c2cccc(C3(C(=O)Nc4ncc(Cc5ccccc5Cl)s4)CC3)c2)CC1 [Example 314] | < 10 µM | 25 to 100% | 
9 | O=C(Nc1ncc(Sc2cccc(Cl)c2)s1)C1(c2ccc3c(c2)OCO3)CC1 [Example 102] | < 10 µM | > 100% | 
10 | COc1ccc(C2(C(=O)Nc3nc4ccc(Cl)cc4s3)CC2)cc1 [Example 47] | < 10 µM | 25 to 100% | 
11 | COc1ccc(C2(C(=O)Nc3ncc(Cc4ccccc4C(N)=O)s3)CC2)cc1 [Example 76] | < 10 µM |  | +++ (“+++” means>100%)

Next, values leading:

Row | EC50 | Emax | % Activity / % Efficacy (relative efficacy) | SMILES
12 | < 10 µM | 25 to 100% |  | O=C(Nc1ncc(Cc2ccccc2Cl)s1)C1(c2cccc(O)c2)CC1 [Example 316]
13 | < 10 µM | > 100% |  | O=C(Nc1ncc(C(c2ccccc2)N2CCOCC2)s1)C1(c2ccc3c(c2)OCO3)CC1 (centres unmarked) [Example 369]
14 | < 10 µM | > 100% |  | CC(CO)(CO)NC(c1cnc(NC(=O)C2(c3ccc4c(c3)OCO4)CC2)s1)c1ccccc1Cl (centres unmarked) [Example 431]
15 | < 10 µM | 25 to 100% |  | CN1CCCC1CCNC(c1cnc(NC(=O)C2(c3ccc4c(c3)OCO4)CC2)s1)c1ccccc1Cl (centres unmarked) [Example 405]
16 | < 10 µM | > 100% |  | COCC1CCCN1C(c1ccc(Cl)cc1)c1cnc(NC(=O)C2(c3ccc4c(c3)OCO4)CC2)s1 (centres unmarked) [Example 331]
17 | < 10 µM | > 100% |  | CC(C)C[C@H](CO)NC(c1cnc(NC(=O)C2(c3ccc4c(c3)OCO4)CC2)s1)c1cc(F)ccc1F (some centres unmarked) [Example 480]
18 | < 10 µM | > 100% |  | CCOc1ccccc1C(c1cnc(NC(=O)C2(c3ccc4c(c3)OCO4)CC2)s1)N1CC[C@@H](O)C1 (some centres unmarked) [Example 473]
19 | < 10 µM | 25 to 100% |  | NC(c1cnc(NC(=O)C2(c3ccc4c(c3)OCO4)CC2)s1)c1ccccc1Cl (centres unmarked) [Example 475]
